Columns and labels:
[1] = tested on: synthesis of LTB4 in human whole blood; experiment: Human whole blood LTB4 production inhibition assay; assay type: cell-based; details: calcimycin stimulated, read-out: hWB LTB4 IC50
Summary of the method: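 Heparinized human whole blood was preincubated with compound for 15 min at 37° C, then stimulated with calcimycin (20 μM final, in PBS pH 7.4) for a further 30 min at 37° C. Plasma LTB4 was quantified by antibody-based homogeneous time-resolved fluorescence.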

[2] = biological target: recombinant human FLAP protein (Homo sapiens (Human), UniProt P20292); experiment: FLAP binding assay (Scintillation Proximity Assay, displacement of [125I]L-691,831); details: read-out: FLAP SPA IC50
Sequence of recombinant human FLAP protein (P20292 whole entry): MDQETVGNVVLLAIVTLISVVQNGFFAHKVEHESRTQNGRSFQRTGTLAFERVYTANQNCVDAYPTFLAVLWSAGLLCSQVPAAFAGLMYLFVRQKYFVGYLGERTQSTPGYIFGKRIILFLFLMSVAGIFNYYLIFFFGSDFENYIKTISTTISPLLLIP
Summary of the method: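 Scintillation proximity displacement of an iodinated (125I) FLAP inhibitor by test compounds, using 100,000×g membrane fraction from lysed cells. Final beads 200 μg/well and protein 5 μg/well; plates shaken 2 h before reading.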

IC50 [1] | IC50 [2] | Compound
2600 nM | 2.6 nM | Nc1ncc(-c2ccc(C3(c4noc(-c5ccc(N6CCN(CCC(=O)O)CC6)nc5)n4)CCC3)cn2)cn1 [Example 53, 3-{4-[5-(3-{1-[6-(2-aminopyrimidin-5-yl)pyridin-3-yl]cyclobutyl}-1,2,4-oxadiazol-5-yl)pyridin-2-yl]piperazin-1-yl}propanoic acid]
120 nM | 28 nM | CC(C)(O)Cn1cc(-c2nc(C3(c4ccc(-c5cnc(N)nc5)nc4)CCC3)no2)cn1 [Example 54, 1-[4-(3-{1-[6-(2-aminopyrimidin-5-yl)pyridin-3-yl]cyclobutyl}-1,2,4-oxadiazol-5-yl)-1H-pyrazol-1-yl]-2-methylpropan-2-ol]
52 nM | 13 nM | Nc1ncc(-c2ccc(C3(c4noc(-c5cnn(C6COC6)c5)n4)CCC3)cn2)cn1 [Example 55, 5-[5-(1-{5-[1-(oxetan-3-yl)-1H-pyrazol-4-yl]-1,2,4-oxadiazol-3-yl}-cyclobutyl)pyridin-2-yl]pyrimidin-2-amine]
250 nM | 22 nM | CNC(=O)Cn1cc(-c2nc(C3(c4ccc(-c5cnc(N)nc5)nc4)CCC3)no2)cn1 [Example 58, 2-[4-(3-{1-[6-(2-aminopyrimidin-5-yl)pyridin-3-yl]cyclobutyl}-1,2,4-oxadiazol-5-yl)-1H-pyrazol-1-yl]-N-methylacetamide]
610 nM | 83 nM | CN(C)C(=O)Cn1cc(-c2nc(C3(c4ccc(-c5cnc(N)nc5)nc4)CCC3)no2)cn1 [Example 59, 2-[4-(3-{1-[6-(2-amino-pyrimidin-5-yl)-pyridin-3-yl]-cyclobutyl}-1,2,4-oxadiazol-5-yl)-pyrazol-1-yl]-N,N-dimethyl-acetamide]
150 nM | 7.9 nM | Nc1ncc(-c2ccc(C3(c4noc(-c5cnc(N6CCNCC6)cn5)n4)CCC3)cn2)cn1 [Example 60, 5-[5-(1-{5-[5-(piperazin-1-yl)pyrazin-2-yl]-1,2,4-oxadiazol-3-yl}cyclobutyl)pyridin-2-yl]pyrimidin-2-amine]
72 nM | 2.6 nM | Nc1ncc(-c2ccc(C3(c4noc(-c5ccc(N6CCNCC6)cc5)n4)CCC3)cn2)cn1 [Example 62, 5-[5-(1-{5-[4-(piperazin-1-yl)phenyl]-1,2,4-oxadiazol-3-yl}cyclobutyl)pyridin-2-yl]pyrimidin-2-amine]
190 nM | 8.8 nM | CCn1cc(-c2nc(C3(c4ccc(-c5cnc(N)nc5)nc4)CCC3)no2)cn1 [Example 63, 5-(5-{1-[5-(1-ethyl-1H-pyrazol-4-yl)-1,2,4-oxadiazol-3-yl]cyclobutyl}pyridin-2-yl)pyrimidin-2-amine]
170 nM | 7.2 nM | CC(C)n1cc(-c2nc(C3(c4ccc(-c5cnc(N)nc5)nc4)CCC3)no2)cn1 [Example 64, 5-[5-(1-{5-[1-(propan-2-yl)-1H-pyrazol-4-yl]-1,2,4-oxadiazol-3-yl}cyclobutyl)pyridin-2-yl]pyrimidin-2-amine]
> 5000 nM | 590 nM | CC(C)(C(=O)O)n1cc(-c2nc(C3(c4ccc(-c5cnc(N)nc5)nc4)CCC3)no2)cn1 [Example 65, 2-[4-(3-{1-[6-(2-aminopyrimidin-5-yl)pyridin-3-yl]cyclobutyl}-1,2,4-oxadiazol-5-yl)-1H-pyrazol-1-yl]-2-methylpropanoic acid]
200 nM | 7.4 nM | Nc1ncc(-c2ccc(C3(c4noc(-c5cnn(C(F)F)c5)n4)CCC3)cn2)cn1 [Example 66, 5-[5-(1-{5-[1-(difluoromethyl)-1H-pyrazol-4-yl]-1,2,4-oxadiazol-3-yl}cyclobutyl)pyridin-2-yl]pyrimidin-2-amine]
69 nM | 9.5 nM | Nc1ncc(-c2ccc(C3(c4noc(-c5cnn(CCF)c5)n4)CCC3)cn2)cn1 [Example 67, 5-[5-(1-{5-[1-(2-fluoroethyl)-1H-pyrazol-4-yl]-1,2,4-oxadiazol-3-yl}cyclobutyl)pyridin-2-yl]pyrimidin-2-amine]
160 nM | 6.1 nM | Nc1ncc(-c2ccc(C3(c4noc(-c5cnn(CC(F)F)c5)n4)CCC3)cn2)cn1 [Example 68, 5-[5-(1-{5-[1-(2,2-difluoroethyl)-1H-pyrazol-4-yl]-1,2,4-oxadiazol-3-yl}cyclobutyl)pyridin-2-yl]pyrimidin-2-amine]
170 nM | 7.6 nM | Nc1ncc(-c2ccc(C3(c4noc(-c5cnn(CC(F)(F)F)c5)n4)CCC3)cn2)cn1 [Example 69, 5-[5-(1-{5-[1-(2,2,2-trifluoroethyl)-1H-pyrazol-4-yl]-1,2,4-oxadiazol-3-yl}cyclobutyl)pyridin-2-yl]pyrimidin-2-amine]
2100 nM | 150 nM | NC(=O)Cn1cc(-c2nc(C3(c4ccc(-c5cnc(N)nc5)nc4)CCC3)no2)cn1 [Example 70, 2-[4-(3-{1-[6-(2-aminopyrimidin-5-yl)pyridin-3-yl]cyclobutyl}-1,2,4-oxadiazol-5-yl)-1H-pyrazol-1-yl]acetamide]
390 nM | 58 nM | CS(=O)(=O)Cn1cc(-c2nc(C3(c4ccc(-c5cnc(N)nc5)nc4)CCC3)no2)cn1 [Example 71, 5-{5-[1-(5-{1-[(methylsulfonyl)methyl]-1H-pyrazol-4-yl}-1,2,4-oxadiazol-3-yl)cyclobutyl]pyridin-2-yl}pyrimidin-2-amine]
2300 nM | 610 nM | Nc1ncc(-c2ccc(C3(c4noc(-c5cccnc5)n4)CCOCC3)cn2)cn1 [Example 72, 5-(5-{4-[5-(pyridin-3-yl)-1,2,4-oxadiazol-3-yl]tetrahydro-2H-pyran-4-yl}pyridin-2-yl)pyrimidin-2-amine]
460 nM | 25 nM | Nc1ncc(-c2ccc(C3(c4noc(-c5cccnc5)n4)CCC3)cn2)cn1 [Example 73, 5-{5-[1-(5-Pyridin-3-yl-1,2,4-oxadiazol-3-yl)-cyclobutyl]-pyridin-2-yl}-pyrimidin-2-ylamine]
210 nM | 4.5 nM | Cc1ccc(-c2nc(C3(c4ccc(-c5cnc(N)nc5)nc4)CCC3)no2)cn1 [Example 74, 5-(5-{1-[5-(6-methylpyridin-3-yl)-1,2,4-oxadiazol-3-yl]cyclobutyl}pyridin-2-yl)pyrimidin-2-amine]
580 nM | 19 nM | Nc1ncc(-c2ccc(C3(c4noc(-c5c[nH]cn5)n4)CCC3)cn2)cn1 [Example 75, 5-(5-{1-[5-(1H-imidazol-4-yl)-1,2,4-oxadiazol-3-yl]cyclobutyl}pyridin-2-yl)pyrimidin-2-amine]
920 nM | 92 nM | Nc1ncc(-c2ccc(C3(c4noc(N5CCCC5)n4)CCC3)cn2)cn1 [Example 76, 5-(5-{1-[5-(pyrrolidin-1-yl)-1,2,4-oxadiazol-3-yl]cyclobutyl}pyridin-2-yl)pyrimidin-2-amine]
490 nM | 51 nM | Cn1cccc(-c2nc(C3(c4ccc(-c5cnc(N)nc5)nc4)CCC3)no2)c1=O [Example 77, 3-(3-{1-[6-(2-aminopyrimidin-5-yl)pyridin-3-yl]cyclobutyl}-1,2,4-oxadiazol-5-yl)-1-methylpyridin-2(1H)-one]
160 nM | 5.5 nM | Cc1cc(-c2nc(C3(c4ccc(-c5cnc(N)nc5)nc4)CCC3)no2)[nH]n1 [Example 80, 5-(5-{1-[5-(3-methyl-1H-pyrazol-5-yl)-1,2,4-oxadiazol-3-yl]cyclobutyl}pyridin-2-yl)pyrimidin-2-amine]
790 nM | 25 nM | COC(=O)c1ccc(-c2nc(C3(c4ccc(-c5cnc(N)nc5)nc4)CCC3)no2)cn1 [Example 81, methyl 5-(3-{1-[6-(2-aminopyrimidin-5-yl)pyridin-3-yl]cyclobutyl}-1,2,4-oxadiazol-5-yl)pyridine-2-carboxylate]
480 nM | 17 nM | CC(C)(O)c1ccc(-c2nc(C3(c4ccc(-c5cnc(N)nc5)nc4)CCC3)no2)cn1 [Example 82, 2-[5-(3-{1-[6-(2-aminopyrimidin-5-yl)pyridin-3-yl]cyclobutyl}-1,2,4-oxadiazol-5-yl)pyridin-2-yl]propan-2-ol]
410 nM | 52 nM | N#Cc1ccc(-c2nc(C3(c4ccc(-c5cnc(N)nc5)nc4)CCC3)no2)cn1 [Example 83, 5-(3-{1-[6-(2-aminopyrimidin-5-yl)pyridin-3-yl]cyclobutyl}-1,2,4-oxadiazol-5-yl)pyridine-2-carbonitrile]
280 nM | 4.1 nM | Nc1ncc(-c2ccc(C3(c4noc(-c5cccnc5Cl)n4)CCC3)cn2)cn1 [Example 84, 5-(5-{1-[5-(2-chloropyridin-3-yl)-1,2,4-oxadiazol-3-yl]cyclobutyl}pyridin-2-yl)pyrimidin-2-amine]
1000 nM | 21 nM | Cc1ncccc1-c1nc(C2(c3ccc(-c4cnc(N)nc4)nc3)CCC2)no1 [Example 85, 5-(5-{1-[5-(2-methylpyridin-3-yl)-1,2,4-oxadiazol-3-yl]cyclobutyl}pyridin-2-yl)pyrimidin-2-amine]
1100 nM | 18 nM | COc1ccncc1-c1nc(C2(c3ccc(-c4cnc(N)nc4)nc3)CCC2)no1 [Example 86, 5-(5-{1-[5-(4-methoxypyridin-3-yl)-1,2,4-oxadiazol-3-yl]cyclobutyl}pyridin-2-yl)pyrimidin-2-amine]
1000 nM | 55 nM | Nc1ncc(-c2ccc(C3(c4noc(-c5ccncc5)n4)CCC3)cn2)cn1 [Example 87, 5-(5-{1-[5-(pyridin-4-yl)-1,2,4-oxadiazol-3-yl]cyclobutyl}pyridin-2-yl)pyrimidin-2-amine]

Compound | IC50 [1] | IC50 [2]
Cc1n[nH]cc1-c1nc(C2(c3ccc(-c4cnc(N)nc4)nc3)CCC2)no1 [Example 78, 5-(5-{1-[5-(3-methyl-1H-pyrazol-4-yl)-1,2,4-oxadiazol-3-yl]cyclobutyl}pyridin-2-yl)pyrimidin-2-amine] | 220 nM | 4.7 nM
